Data on six molecules can be found in PubChem BioAssay AID1914 (Broad Institute, 2009).

Structures are written as SMILES. Values joined by “and” are separate entries in the source; they are usually repeats but may differ in a detail not shown here. Identical values can stand only once. Records with an inconclusive call do not appear. Active and inactive are the calls of the source.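 Rule for the calls: active = Compounds whose fitted IC50 for cell-normalized streptokinase activity falls within a set log distance above the top dose; inactive = IC50 further above the top dose than that limit.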

The target of this assay is S. pyogenes M1 GAS, streptokinase activity/viability, OD405, 6 h. In words: S. pyogenes streptokinase expression inhibitors, potency, dose response, plasminogen activation absorbance, OD405 (AID 1914).

With `CNC(CC(C)C)C(=O)NC1C(=O)NC(CC(N)=O)C(=O)NC2C(=O)NC3C(=O)NC(C(=O)NC(C(=O)O)c4cc(O)cc(O)c4-c4cc3ccc4O)C(O)c3ccc(c(Cl)c3)Oc3cc2cc(c3OC2OC(CO)C(O)C(O)C2OC2CC(C)(N)C(O)C(C)O2)Oc2ccc(cc2Cl)C1O` (stereo unspecified), the IC50 was > 15 µM (inactive). With `CCN1/C(=C\C=C\C2=[N+](CC)c3ccccc3C2(C)C)C(C)(C)c2ccccc21`, the IC50 is 15.6 µM. Turning to `Cc1ccc(C[n+]2c(-c3ccc(C)cc3)cc(-c3ccc(C)cc3)cc2-c2ccc(C)cc2)cc1`, the IC50 was 3.61 µM. With `CN(C)c1ccnc2c[cH-]cc12.[Fe].c1ccc(-[c-]2[c-](-c3ccccc3)[c-](-c3ccccc3)[c-](-c3ccccc3)[c-]2-c2ccccc2)cc1` (stereo unspecified), the half-maximal inhibitory concentration (IC50) is 2.11 µM and 2.6 µM. On to `Cc1ccc(C(O)(C(=O)NNc2ccc3ccccc3n2)c2ccc(C)cc2)cc1`, for which the IC50 is > 15 µM (inactive). Take `CCCCCCCCCCCCCCCCn1cc[n+](C)c1`: the IC50 is > 15 µM (inactive).

One may read the IC50 as the concentration that inhibits the measured activity by half.
